From publication PMC9963121, “Development of Combretastatin A-4 Analogues as Potential Anticancer Agents with Improved Aqueous Solubility” (Molecules, 2023)

Experiments:
[1] = test system: BEL-7402 liver cancer cell; assay: MTT cell growth inhibition assay, BEL-7402 liver cancer cells; format: cell-based; details: Homo sapiens, mean ± SD of three experiments, read-out: IC50 BEL-7402 Hepatoma Cells
Text: Initially, we designed and synthesised seven compounds—9a and 12a1–12a6—and evaluated the anticancer activity and aqueous solubility. We evaluated the cytotoxic effects of these stilbene nitrile analogues against a panel of four human cancer cell lines (HCT-116, BEL-7402, MCF-7 and AGS) and two human non-cancerous normal cell lines (L-02 and MCF-10A), using CA-4 as a control. The compounds were screened for aqueous solubility in 0.01 M PBS using a high throughput UV method. […] It is possible that the size of the nitrogen heterocycle had little effect on the activity of these compounds. […] The aqueous solubility of all the compounds 12a1–12a6 was higher than that of 9a, particularly that of 12a1 and 12a2 containing piperazine rings. […] Of the six compounds with improved aqueous solubility, 12a1 had the best activity.
All human cell lines were used in this study. AGS gastric cancer cell, BEL-7402 liver cancer cell, HCT-116 colorectal cancer cell, L-02 normal liver cell, MCF-7 breast cancer cell, and MCF-10A normal breast cell were initially purchased from American Type Culture Collection (ATCC, Manassas, VA, USA). RPMI-1640 media, DMEM and FBS, were provided by Gibco Company. The cells were maintained in DMEM or RPMI-1640, supplemented with 10% FBS, 100 IU/mL penicillin and […] streptomycin, and at 37 °C in a humidified atmosphere containing 5% CO2.
The experiment was carried out according to the method of reference.

[2] = Compound stability in rat plasma, HPLC; format: in vitro ADME; details: 37 °C
Method: Blood was collected from SD rats (200–250 g, male and female, Animal Experimental Center of Yanbian University) into heparin tubes, and supernatant plasma was collected after centrifugation.
A certain amount of 9a and 12a1 were accurately weighed and mixed with rat plasma. After incubation at 37 ℃ for 0, 6, 12, 24 and 36 h, the plasma samples were treated with methanol and analyzed by HPLC to determine their stability in plasma.
A HITACHI Primaide HPLC liquid chromatography system was equipped and used for all analyses. Chromatographic separation was performed on a Welch Ultimate XB-C18 column (3.9 mm × 150 mm, 5 μm; Welch, China). The analytes were eluted using a gradient method with a flow rate of 1 mL/min. Mobile phase A was Ultra pure water, and mobile phase B was methanol according to the following gradient: (1) The gradient elution conditions of 9a: 0 to 8 min, 55% to 67% B; 8.1 to 15 min, 67% to 90% B; 15.1 to 25 min, 55% B. (2) The gradient elution conditions of 12a1: 0 to 9 min, 55% to 65% B; 9.1 to 12 min, 65% to 75% B; 12.1 to 15 min, 75% to 85% B; 15.1 to 20 min, 90% B; 20.1 to 30 min, 55% B. The injection volume was 3 μL. The column temperature was set at 40 °C. […]
1.6. Plasma stability assessment
Prepare plasma:blood was collected from SD rats (200-250g, male and female, Animal Experimental Center of Yanbian University) into heparin tubes, and supernatant plasma was collected after centrifugation.
A certain amount of 9a and 12a1 were accurately weighed and mixed with rat plasma.
After incubation at 37℃ for 0 h, 6 h, 12 h, 24 h and 36 h, the plasma samples were treated with methanol and analyzed by HPLC to determine their stability in plasma.
Analytical instrument and conditions:
A HITACHI Primaide HPLC liquid chromatography system equipped was used for all analyses. Chromatographic separation was performed on a Welch Ultimate XB-C18 column (3.9 mm × 150 mm, 5 μm; Welch, China). The analytes were eluted using a gradient method with a flow rate of 1 mL/min. Mobile phase A was Ultra pure water, and mobile phase B was methanol according to the following gradient: (1). The gradient elution conditions of 9a: 0 to 8 minutes, 55% to 67% B; 8.1 to 15 minutes, 67% to 90% B; 15.1 to 25 minutes, 55% B. (2). The gradient elution conditions of […]

COc1cc(/C(C#N)=C/c2ccc(NC(=O)CN3CCN(C)CC3)cc2)cc(OC)c1OC [12a1]
IC50 [1]: 6.36 ± 0.61 µM | Decrease of HPLC peak area in rat plasma ([2]; within 36 h, UV 294 nm): ~22% | Plasma stability (in words) ([2]; rat plasma, 24 h): retained plasma stability over 24 h
